pIC50: −log10 of the molar value. Structures can show the parent of a compound that is named as a salt.
target: human Cat S (Homo sapiens (Human), UniProt P25774); test: Cathepsin enzyme inhibition assay (fluorogenic peptide substrate cleavage); type: biochemical; settings: human Cathepsin S 1 nM, substrate Z-Val-Val-Arg-AMC 20 μM, pH 6.5; read-out: Ic50 CatS: human
Protocol: Cathepsin Enzyme Inhibition Assay
Enzyme activity is measured by observing the increase in fluorescence intensity caused by cleavage of a peptide substrate containing a fluorophore whose emission is quenched in the intact peptide. • Assay buffer: 100 mM potassium phosphate pH 6.5, EDTA-Na 5 mM, Triton X-100 0.001%, DTT 5 mM. • Enzymes (all at 1 nM): human and mouse Cathepsin S, Cat K, Cat B, Cat L. • Substrate (20 μM): Z-Val-Val-Arg-AMC, except for Cat K which uses Z-Leu-Arg-AMC (both from Bachem). • Z=Benzyloxycarbonyl. • AMC=7-Amino-4-Methyl-Coumarin. • DTT=dithiothreitol. • Final volume: 100 μL. • Excitation 360 nm, Emission 465 nm.
Enzyme is added to the substance dilutions in 96-well microtitre plates and the reaction is started with substrate. Fluorescence emission is measured over 20 minutes, during which time a linear increase is observed in the absence of inhibitor. IC50 are calculated by standard methods.
Inhibition of human Cat S, mouse Cat S, human Cat K, human Cat B, human Cat L and mouse Cat L have been measured separately. The results obtained for human Cat S for representative compounds of the invention are expressed in the following table in μM.

human Cat S, sequence (P25774 115-331): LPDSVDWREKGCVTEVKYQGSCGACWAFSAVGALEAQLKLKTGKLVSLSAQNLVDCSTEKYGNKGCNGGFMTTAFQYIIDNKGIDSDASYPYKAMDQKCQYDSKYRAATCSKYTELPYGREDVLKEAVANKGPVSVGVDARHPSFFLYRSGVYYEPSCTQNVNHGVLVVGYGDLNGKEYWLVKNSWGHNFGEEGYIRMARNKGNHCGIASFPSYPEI

| SMILES | pIC50 |
| --- | --- |
| N#CC1(NC(=O)[C@@H]2C[C@@H](S(=O)(=O)c3ccccc3Cl)CN2C(=O)C2CCN2C2CCCCC2)CC1 (stereo partly drawn) [Example 1, (2S,4R)-4-(2-Chlorophenylsulfonyl)-N-(1-cyanocyclopropyl)-1-(1-cyclohexylazetidine-2-carbonyl)pyrrolidine-2-carboxamide] | 8.77 |
| N#CC1(NC(=O)[C@@H]2C[C@@H](S(=O)(=O)c3ccccc3Cl)CN2C(=O)C2CCN2C2CCC(F)(F)CC2)CC1 (stereo partly drawn) [Example 2, (2S,4R)-4-(2-Chlorophenylsulfonyl)-N-(1-cyanocyclopropyl)-1-(1-(4,4-difluorocyclohexyl)azetidine-2-carbonyl)pyrrolidine-2-carboxamide] | 9.00 |
| CC1(C)CCC(N2CCC2C(=O)N2C[C@H](S(=O)(=O)c3ccccc3Cl)C[C@H]2C(=O)NC2(C#N)CC2)CC1 (stereo partly drawn) [Example 3, (2S,4R)-4-(2-Chlorophenylsulfonyl)-N-(1-cyanocyclopropyl)-1-(1-(4,4-dimethylcyclohexyl)azetidine-2-carbonyl)pyrrolidine-2-carboxamide] | 8.42 |
| Cc1nsc(N2CCC(N3CCC3C(=O)N3C[C@H](S(=O)(=O)c4ccccc4Cl)C[C@H]3C(=O)NC3(C#N)CC3)CC2)n1 (stereo partly drawn) [Example 4, (2S,4R)-4-(2-Chlorophenylsulfonyl)-N-(1-cyanocyclopropyl)-1-(1-(1-(3-methyl-1,2,4-thiadiazol-5-yl)piperidin-4-yl)azetidine-2-carbonyl)pyrrolidine-2-carboxamide formate] | 9.05 |
| N#CC1(NC(=O)[C@@H]2C[C@@H](S(=O)(=O)c3ccccc3Cl)CN2C(=O)C2CCN2C2CCOCC2)CC1 (stereo partly drawn) [Example 5, (2S,4R)-4-(2-Chlorophenylsulfonyl)-N-(1-cyanocyclopropyl)-1-(1-(tetrahydro-2H-pyran-4-yl)azetidine-2-carbonyl)pyrrolidine-2-carboxamide formate] | 9.10 |
| CC(=O)N1CCC(N2CCC2C(=O)N2C[C@H](S(=O)(=O)c3ccccc3Cl)C[C@H]2C(=O)NC2(C#N)CC2)CC1 (stereo partly drawn) [Example 6, (2S,4R)-1-(1-(1-Acetylpiperidin-4-yl)azetidine-2-carbonyl)-4-(2-chlorophenylsulfonyl)-N-(1-cyanocyclopropyl)pyrrolidine-2-carboxamide] | 8.89 |
| N#CC1(NC(=O)[C@@H]2C[C@@H](S(=O)(=O)c3ccccc3Cl)CN2C(=O)C2CCN2C2CCN(CC(F)(F)F)CC2)CC1 (stereo partly drawn) [Example 7, (2S,4R)-4-(2-Chlorophenylsulfonyl)-N-(1-cyanocyclopropyl)-1-(1-(1-(2,2,2-trifluoroethyl)piperidin-4-yl)azetidine-2-carbonyl)pyrrolidine-2-carboxamide] | 8.41 |
| CC1(C)CC(N2CCC2C(=O)N2C[C@H](S(=O)(=O)c3ccccc3Cl)C[C@H]2C(=O)NC2(C#N)CC2)CCO1 (stereo partly drawn) [Example 8, (2S,4R)-4-(2-Chlorophenylsulfonyl)-N-(1-cyanocyclopropyl)-1-(1-(2,2-dimethyltetrahydro-2H-pyran-4-yl)azetidine-2-carbonyl)pyrrolidine-2-carboxamide] | 8.60 |
| N#CC1(NC(=O)[C@@H]2C[C@@H](S(=O)(=O)c3ccccc3Cl)CN2C(=O)C2CCN2C2CCCC2)CC1 (stereo partly drawn) [Example 9, (2S,4R)-4-(2-Chlorophenylsulfonyl)-N-(1-cyanocyclopropyl)-1-(1-cyclopentylazetidine-2-carbonyl)pyrrolidine-2-carboxamide] | 8.70 |
| N#CC1(NC(=O)[C@@H]2C[C@@H](S(=O)(=O)c3ccccc3Cl)CN2C(=O)C2CCN2C2CCSCC2)CC1 (stereo partly drawn) [Example 10, (2S,4R)-4-(2-Chlorophenylsulfonyl)-N-(1-cyanocyclopropyl)-1-(1-(tetrahydro-2H-thiopyran-4-yl)azetidine-2-carbonyl)pyrrolidine-2-carboxamide] | 8.66 |
| CCOC(=O)N1CCC(N2CCC2C(=O)N2C[C@H](S(=O)(=O)c3ccccc3Cl)C[C@H]2C(=O)NC2(C#N)CC2)CC1 (stereo partly drawn) [Example 11, Ethyl 4-(2-((2S,4R)-4-(2-chlorophenylsulfonyl)-2-(1-cyanocyclopropylcarbamoyl)pyrrolidine-1-carbonyl)azetidin-1-yl)piperidine-1-carboxylate] | 8.77 |
| CS(=O)(=O)N1CCC(N2CCC2C(=O)N2C[C@H](S(=O)(=O)c3ccccc3Cl)C[C@H]2C(=O)NC2(C#N)CC2)CC1 (stereo partly drawn) [Example 12, (2S,4R)-4-(2-Chlorophenylsulfonyl)-N-(1-cyanocyclopropyl)-1-(1-(1-(methylsulfonyl)piperidin-4-yl)azetidine-2-carbonyl)pyrrolidine-2-carboxamide] | 8.57 |
| CCOC(=O)N1CCC(N2CCC2C(=O)N2C[C@H](Sc3ccc(F)cc3Cl)C[C@H]2C(=O)NC2(C#N)CC2)CC1 (stereo partly shown) [Example 13] | 8.17 |
| CCOC(=O)N1CCC(N2CCC2C(=O)N2C[C@H](S(=O)(=O)c3ccc(F)cc3Cl)C[C@H]2C(=O)NC2(C#N)CC2)CC1 (stereo partly drawn) [Example 14, Ethyl 4-(2-((2S,4R)-4-(2-chloro-4-fluorophenylsulfonyl)-2-(1-cyanocyclopropylcarbamoyl)pyrrolidine-1-carbonyl)azetidin-1-yl)piperidine-1-carboxylate] | 8.82 |
| CCOC(=O)N1CCC(N2CCC2C(=O)N2C[C@H](Sc3ccc(Cl)cc3)C[C@H]2C(=O)NC2(C#N)CC2)CC1 (stereo partly drawn) [Example 15, Ethyl 4-(2-((2S,4R)-4-(4-chlorophenylthio)-2-(1-cyanocyclopropylcarbamoyl)pyrrolidine-1-carbonyl)azetidin-1-yl)piperidine-1-carboxylate] | 6.92 |
| CCOC(=O)N1CCC(N2CCC2C(=O)N2C[C@H](Sc3ccccc3OC)C[C@H]2C(=O)NC2(C#N)CC2)CC1 (stereo partly drawn) [Example 16, Ethyl 4-(2-((2S,4R)-2-(1-cyanocyclopropylcarbamoyl)-4-(2-methoxyphenylthio)pyrrolidine-1-carbonyl)azetidin-1-yl)piperidine-1-carboxylate] | 5.76 |
| CCOC(=O)N1CCC(N2CCC2C(=O)N2C[C@H](Sc3ccccc3OC(F)(F)F)C[C@H]2C(=O)NC2(C#N)CC2)CC1 (stereo partly drawn) [Example 17, Ethyl 4-(2-((2S,4R)-2-(1-cyanocyclopropylcarbamoyl)-4-(2-(trifluoromethoxy)phenylthio)pyrrolidine-1-carbonyl)azetidin-1-yl)piperidine-1-carboxylate] | 7.18 |
| CCOC(=O)N1CCC(N2CCC2C(=O)N2C[C@H](Sc3cccc(C(F)(F)F)c3)C[C@H]2C(=O)NC2(C#N)CC2)CC1 (stereo partly drawn) [Example 18, Ethyl 4-(2-((2S,4R)-2-(1-cyanocyclopropylcarbamoyl)-4-(3-(trifluoromethyl)phenylthio)pyrrolidine-1-carbonyl)azetidin-1-yl)piperidine-1-carboxylate] | 8.10 |
| CCOC(=O)N1CCC(N2CCC2C(=O)N2C[C@H](S(=O)(=O)c3cccc(Cl)c3)C[C@H]2C(=O)NC2(C#N)CC2)CC1 (stereo partly drawn) [Example 19, Ethyl 4-(2-((2S,4R)-4-(3-chlorophenylsulfonyl)-2-(1-cyanocyclopropylcarbamoyl)pyrrolidine-1-carbonyl)azetidin-1-yl)piperidine-1-carboxylate] | 8.74 |
| CCOC(=O)N1CCC(N2CCC2C(=O)N2C[C@H](S(=O)(=O)c3ccc(C)cc3)C[C@H]2C(=O)NC2(C#N)CC2)CC1 (stereo partly drawn) [Example 20, Ethyl 4-(2-((2S,4R)-2-(1-cyanocyclopropylcarbamoyl)-4-tosylpyrrolidine-1-carbonyl)azetidin-1-yl)piperidine-1-carboxylate] | 8.85 |
| CCOC(=O)N1CCC(N2CCC2C(=O)N2C[C@H](S(=O)(=O)c3ccccc3OC)C[C@H]2C(=O)NC2(C#N)CC2)CC1 (stereo partly drawn) [Example 21, Ethyl 4-(2-((2S,4R)-2-(1-cyanocyclopropylcarbamoyl)-4-(2-methoxyphenylsulfonyl)pyrrolidine-1-carbonyl)azetidin-1-yl)piperidine-1-carboxylate] | 8.04 |
| CCOC(=O)N1CCC(N2CCC2C(=O)N2C[C@H](S(=O)(=O)c3ccc(Cl)cc3)C[C@H]2C(=O)NC2(C#N)CC2)CC1 (stereo partly drawn) [Example 22, Ethyl 4-(2-((2S,4R)-4-(4-chlorophenylsulfonyl)-2-(1-cyanocyclopropylcarbamoyl)pyrrolidine-1-carbonyl)azetidin-1-yl)piperidine-1-carboxylate] | 8.55 |
| CCOC(=O)N1CCC(N2CCC2C(=O)N2C[C@H](S(=O)(=O)c3ccccc3OC(F)(F)F)C[C@H]2C(=O)NC2(C#N)CC2)CC1 (stereo partly drawn) [Example 23, Ethyl 4-(2-((2S,4R)-2-(1-cyanocyclopropylcarbamoyl)-4-(2-(trifluoromethoxy)phenylsulfonyl)pyrrolidine-1-carbonyl)azetidin-1-yl)piperidine-1-carboxylate] | 8.39 |
| CCOC(=O)N1CCC(N2CCC2C(=O)N2C[C@H](S(=O)(=O)c3cccc(C(F)(F)F)c3)C[C@H]2C(=O)NC2(C#N)CC2)CC1 (stereo partly drawn) [Example 24, Ethyl 4-(2-((2S,4R)-2-(1-cyanocyclopropylcarbamoyl)-4-(3-(trifluoromethyl)phenylsulfonyl)pyrrolidine-1-carbonyl)azetidin-1-yl)piperidine-1-carboxylate] | 8.80 |
| N#CC1(NC(=O)[C@@H]2C[C@@H](S(=O)(=O)c3ccccc3Cl)CN2C(=O)C2(N3CCCCC3)CC2)CC1 [Example 25, (2S,4R)-4-(2-Chlorophenylsulfonyl)-N-(1-cyanocyclopropyl)-1-(1-(piperidin-1-yl)cyclopropanecarbonyl)pyrrolidine-2-carboxamide] | 9.30 |
